Laboratory results published in patent US12697368B2, “TSG6 polypeptide fragment for dry eye disease” (The University of Manchester, priority 2019, dated 2026).

Legend:
NOD.B10.H2b mice = details: recombinant TSG-6 (0.1%) topical 4 times a day, 1 week; vs 0.05% cyclosporine twice a day; cited from earlier work
[1] = interaction is cooperative; cited from earlier work
rat eyes = details: ethanol application and mechanical debridement; cited from earlier work
[2] = Solubility in PBS by UV spectrophotometry; assay type: physicochemical
Procedure: (§1) The solubility and aggregation state of full-length TSG-6 and LINK_TSG6 in PBS were compared using UV spectrophotometry and dynamic light scattering (DLS) at a range of concentrations. […] The full-length protein had much lower solubility with less than 40% of the protein remaining in solution at 0.4, 0.8, 1.6. and 3.2 mg/ml.

[3] = Aggregation state in PBS by dynamic light scattering (DLS); assay type: physicochemical
Procedure: as §1

full-length TSG-6: full length human recombinant TSG-6 protein (R&D Systems), ~35 kDa secreted product of TNF-stimulated gene-6
efficacy in inflammation mediated dry eye compared with cyclosporine eye drops (NOD.B10.H2b mice): as effective
binding to HA compared with LINK_TSG6 [1]: binds more effectively
corneal opacity as compared to a PBS control (rat eyes): reduced
neovascularization as compared to a PBS control (rat eyes): reduced
protein remaining in solution ([2]; PBS, 0.4, 0.8, 1.6 and 3.2 mg/ml): less than 40%
solubility and stability in solution ([2]; general statement): insoluble and prone to aggregation
aggregation ([3]; 0.2, 0.4, 0.8, 1.6 and 3.2 mg/ml): highly aggregated
size of aggregates formed ([3]; 1.6 and 3.2 mg/ml, DLS measurements out of range): greater than 25 million
